Patent publication US11649236B2, “Polycyclic carbamoylpyridone derivative” (Shionogi & Co., Ltd., priority 2018, dated 2023)

test system: HIV; test: Anti-HIV activity (MT-4 cells, MTT); format: cell-based; conditions: Human immunodeficiency virus 1, MT4, 96 h, cultured 4 days
Method: Serial dilutions of a test sample were prepared in a 96-well microplate (50 μL/well). 2.5×10^5 cells/mL of a MT-4 cell suspension was dispensed at 100 μL/well to the plate containing the test sample. Then, an HIV virus solution was dispensed at 50 μL/well. The plate was mixed with a plate mixer and cultured for 4 days in a CO2 incubator. An MTT (3-(4,5-dimethylthiazol-2-yl)-2,5-diphenyltetrazolium bromide) solution was dispensed at 30 μL/well. The plate was reacted for 1 hour in a CO2 incubator. 150 μL of the supernatant was removed from each well so as not to take up the cells. 150 μL of a cell lysis solution was added to each well and well mixed with a plate mixer until the cells were completely lysed. The absorbance of the mixed plate was measured at two wavelengths of 560 nm and 690 nm with a microplate reader.

SMILES	EC50 [nM]
CCN1C(=O)c2c(O)c(=O)c(C(=O)NCc3ccc(F)cc3F)cn2N2CCOC[C@@H]12 [Compound I-001]	0.52
CCN1C(=O)c2c(O)c(=O)c(C(=O)NCc3ccc(F)c(Cl)c3F)cn2N2CCCC[C@@H]12 [Compound I-003]	1.4
CCN1C(=O)c2c(O)c(=O)c(C(=O)NCc3ccc(F)c(Cl)c3F)cn2N2CCOC[C@@H]12 [Compound I-004]	0.56
CCN1C(=O)c2c(O)c(=O)c(C(=O)NCc3ccc(F)c(Cl)c3F)cn2N2CCC[C@@H]12 [Compound I-005]	1.3
CCN1C(=O)c2c(O)c(=O)c(C(=O)NCc3cc(Cl)c(F)cc3F)cn2N2CCCC[C@@H]12 [Compound I-007]	4
CCN1C(=O)c2c(O)c(=O)c(C(=O)NCc3ccc(F)cc3F)cn2N2CCC[C@@]12C [Compound I-008]	2
CCN1C(=O)c2c(O)c(=O)c(C(=O)NCc3ccc(F)cc3F)cn2N2CCN(C(=O)OC(C)(C)C)C[C@@H]12 [Compound I-009]	1.2
CCN1C(=O)c2c(O)c(=O)c(C(=O)NCc3ccc(F)cc3F)cn2N2CCNC[C@@H]12 [Compound I-010]	1.9
CCN1C(=O)c2c(O)c(=O)c(C(=O)NCc3ccc(F)c(C)c3F)cn2N2CCCC[C@@H]12 [Compound I-012]	4
CCN1C(=O)c2c(O)c(=O)c(C(=O)NCc3ccc(F)cc3F)cn2N2CCN(C)C[C@@H]12 [Compound I-013]	5.6
CCN1C(=O)c2c(O)c(=O)c(C(=O)NCc3ccc(Br)cc3F)cn2N2CCCC[C@@H]12 [Compound I-014]	10
COCCN1C(=O)c2c(O)c(=O)c(C(=O)NCc3ccc(F)cc3F)cn2N2CCCC[C@@H]12 [Compound I-016]	1.4
CCN1C(=O)c2c(O)c(=O)c(C(=O)NC3(c4ccc(F)cc4F)CC3)cn2N2CCCC[C@@H]12 [Compound I-017]	6.1
CCN1C(=O)c2c(O)c(=O)c(C(=O)NCc3ccc(F)cc3F)cn2N2Cc3ccccc3[C@@H]12 [Compound I-018]	2.1
CCN1C(=O)c2c(O)c(=O)c(C(=O)NCc3cccc(Cl)c3F)cn2N2CCCC[C@@H]12 [Compound I-019]	1.8
CCN1C(=O)c2c(O)c(=O)c(C(=O)NCc3ccc(F)cc3F)cn2N2CCCC(C)(C)[C@@H]12 [Compound I-020]	1.3
CCCN1C(=O)c2c(O)c(=O)c(C(=O)NCc3ccc(F)cc3F)cn2N2CCCC[C@@H]12 [Compound I-021]	1.1
O=C(NCc1ccc(F)cc1F)c1cn2c(c(O)c1=O)C(=O)N(C[C@H]1CCCO1)[C@@H]1CCCCN12 [Compound I-022]	1.1
O=C(NCc1ccc(F)cc1F)c1cn2c(c(O)c1=O)C(=O)N(C[C@@H]1CCCO1)[C@@H]1CCCCN12 [Compound I-023]	0.62
COCCCN1C(=O)c2c(O)c(=O)c(C(=O)NCc3ccc(F)cc3F)cn2N2CCCC[C@@H]12 [Compound I-024]	2.9
CCN1C(=O)c2c(O)c(=O)c(C(=O)NCc3ccc(F)c(F)c3F)cn2N2CCCC[C@@H]12 [Compound I-025]	1.9
O=C(NCc1ccc(F)cc1F)c1cn2c(c(O)c1=O)C(=O)N(C1CCCC1)[C@@H]1CCCCN12 [Compound I-026]	3.5
CCN1C(=O)c2c(O)c(=O)c(C(=O)NCc3ccc(F)cc3F)cn2N2CCc3ccccc3[C@@H]12 [Compound I-027]	0.89
O=C(NCc1ccc(F)cc1F)c1cn2c(c(O)c1=O)C(=O)N(CC1CC1)[C@@H]1CCCCN12 [Compound I-028]	1.9
CCN1C(=O)c2c(O)c(=O)c(C(=O)N[C@H](C)c3ccc(F)cc3F)cn2N2CCCC[C@@H]12 [Compound I-029]	12

SMILES	EC50 [nM]
CCN1C(=O)c2c(O)c(=O)c(C(=O)N[C@@H](C)c3ccc(F)cc3F)cn2N2CCCC[C@@H]12 [Compound I-030]	36
O=C(NCc1ccc(F)cc1F)c1cn2c(c(O)c1=O)C(=O)N(C1CC1)[C@@H]1CCCCN12 [Compound I-031]	0.69
CCN1C(=O)c2c(O)c(=O)c(C(=O)NCc3ccc(F)cc3F)cn2N2CCCCC[C@@H]12 [Compound I-032]	1.2
CCN1C(=O)c2c(O)c(=O)c(C(=O)NCc3cccc(Cl)c3Cl)cn2N2CCCC[C@@H]12 [Compound I-033]	2.5
CCN1C(=O)c2c(O)c(=O)c(C(=O)NCc3ccc(F)c(Cl)c3)cn2N2CCCC[C@@H]12 [Compound I-034]	1.3
CCN1C(=O)c2c(O)c(=O)c(C(=O)NCc3ccc(Cl)cc3F)cn2N2CCCC[C@@H]12 [Compound I-035]	3.2
CCN1C(=O)c2c(O)c(=O)c(C(=O)NCc3cc(F)c(F)cc3F)cn2N2CCCC[C@@H]12 [Compound I-036]	1.4
CCN1C(=O)c2c(O)c(=O)c(C(=O)NCc3cc(F)c(F)c(F)c3)cn2N2CCCC[C@@H]12 [Compound I-037]	2
CCN1C(=O)c2c(O)c(=O)c(C(=O)NCc3ccc(F)cc3Cl)cn2N2CCCC[C@@H]12 [Compound I-038]	0.72
COC[C@H](C)N1C(=O)c2c(O)c(=O)c(C(=O)NCc3ccc(F)cc3F)cn2N2CCCC[C@@H]12 [Compound I-039]	4.4
COC[C@@H](C)N1C(=O)c2c(O)c(=O)c(C(=O)NCc3ccc(F)cc3F)cn2N2CCCC[C@@H]12 [Compound I-040]	0.7
C[C@@H](N1C(=O)c2c(O)c(=O)c(C(=O)NCc3ccc(F)cc3F)cn2N2CCCC[C@@H]12)C(F)(F)F [Compound I-041]	0.66
CCN1C(=O)c2c(O)c(=O)c(C(=O)NCc3cccc(F)c3F)cn2N2CCCC[C@@H]12 [Compound I-042]	0.72
O=C(NCc1ccc(F)cc1F)c1cn2c(c(O)c1=O)C(=O)N(Cc1ccc(F)cc1F)[C@@H]1CCCCN12 [Compound I-043]	3.5
O=C(NCc1ccc(F)cc1F)c1cn2c(c(O)c1=O)C(=O)N([C@@H]1C[C@@H]1F)[C@@H]1CCCCN12 [Compound I-044]	1.2
O=C(NCc1ccc(F)cc1F)c1cn2c(c(O)c1=O)C(=O)N(CCF)[C@@H]1CCCCN12 [Compound I-045]	0.73
O=C(NCc1ccc(F)cc1F)c1cn2c(c(O)c1=O)C(=O)N(CC(F)F)[C@@H]1CCCCN12 [Compound I-046]	0.43
O=C(NCc1ccc(F)cc1F)c1cn2c(c(O)c1=O)C(=O)N(CCCF)[C@@H]1CCCCN12 [Compound I-047]	1.5
CCN1C(=O)c2c(O)c(=O)c(C(=O)NCc3c(F)ccc(Cl)c3F)cn2N2CCCC[C@@H]12 [Compound I-048]	1.2
CCN1C(=O)c2c(O)c(=O)c(C(=O)NCc3c(Cl)ccc(Cl)c3F)cn2N2CCCC[C@@H]12 [Compound I-049]	2.3
O=C(NCc1ccc(F)cc1F)c1cn2c(c(O)c1=O)C(=O)N(C1CC(F)(F)C1)[C@@H]1CCCCN12 [Compound I-051]	0.72
O=C(NCc1ccc(F)cc1F)c1cn2c(c(O)c1=O)C(=O)N(C1CCC(F)(F)CC1)[C@@H]1CCCCN12 [Compound I-052]	5.5
O=C(NCc1ccc(F)cc1F)c1cn2c(c(O)c1=O)C(=O)N(CC(F)(F)F)[C@@H]1CCCCN12 [Compound I-053]	0.94
CCN1C(=O)c2c(O)c(=O)c(C(=O)NCc3ccc(F)cc3F)cn2N2[C@@H]3CCC[C@@H]3C[C@@H]12 [II-025]	1.1
CCN1C(=O)c2c(O)c(=O)c(C(=O)NCc3ccc(F)cc3F)cn2N2[C@H]3CCC[C@H]3CC[C@@H]12 [II-030]	0.86

More lines, now with the values ahead:

EC50 [nM]	SMILES
1	CC(C)N1C(=O)c2c(O)c(=O)c(C(=O)NCc3c(F)cc(F)cc3F)cn2N2C[C@@H](C)CC[C@@H]12 [II-001]
0.77	COC[C@@H](C)N1C(=O)c2c(O)c(=O)c(C(=O)NCc3cccc(Cl)c3F)cn2N2CC[C@H](C)C[C@@H]12 [II-002]
6.2	CCN1C(=O)c2c(O)c(=O)c(C(=O)NC3(c4cccc(Cl)c4F)CC3)cn2N2CCCC[C@@H]12 [II-003]
0.58	COC[C@@H](C)N1C(=O)c2c(O)c(=O)c(C(=O)NCc3cccc(Cl)c3F)cn2N2CCCC[C@@H]12 [II-006]
0.62	C[C@H]1CC[C@H]2N(C)C(=O)c3c(O)c(=O)c(C(=O)NCc4c(F)cc(F)cc4F)cn3N2C1 [II-007]
1.5	CCN1C(=O)c2c(O)c(=O)c(C(=O)NCc3cccc(Cl)c3F)cn2N2[C@H](C)CC[C@@H]12 [II-008]
1	COC[C@@H]1CC[C@H]2N(C(C)C)C(=O)c3c(O)c(=O)c(C(=O)NCc4ccc(F)cc4F)cn3N12 [II-010]
0.49	COC[C@@H]1CC[C@H]2N(C(C)C)C(=O)c3c(O)c(=O)c(C(=O)NCc4c(F)cc(F)cc4F)cn3N12 [II-011]
3.6	CCN1C(=O)c2c(O)c(=O)c(C(=O)N[C@H](C)c3cccc(Cl)c3F)cn2N2CCCC[C@@H]12 [II-012]
0.55	C[C@@H]1CCC[C@H]2N(C)C(=O)c3c(O)c(=O)c(C(=O)NCc4cccc(Cl)c4F)cn3N12 [II-014]
0.65	CCN1C(=O)c2c(O)c(=O)c(C(=O)NCc3c(F)cc(F)cc3F)cn2N2C[C@@H]3CCC[C@@H](C3)[C@@H]12 [II-016]
1.6	CCN1C(=O)c2c(O)c(=O)c(C(=O)NCc3ccc(F)cc3F)cn2N2CCC3(CCC3)C[C@@H]12 [II-017]
0.23	CCN1C(=O)c2c(O)c(=O)c(C(=O)NCc3nccc(Cl)c3F)cn2N2CCCC[C@@H]12 [II-019]
3.8	CN1C(=O)c2c(O)c(=O)c(C(=O)NCc3ccc(Cl)cc3F)cn2N2Cc3ccccc3[C@@H]12 [II-029]
1.5	CCN1C(=O)c2c(O)c(=O)c(C(=O)NCc3cccc(Cl)c3F)cn2N2[C@H](C)CCC[C@@H]12 [II-032]
0.22	CN1C(=O)c2c(O)c(=O)c(C(=O)NCc3ccc(F)c(Cl)c3F)cn2N2CCCC[C@@H]12 [II-033]
0.73	CCOC[C@@H](C)N1C(=O)c2c(O)c(=O)c(C(=O)NCc3ccc(F)cc3F)cn2N2CCCC[C@@H]12 [II-034]
